Data set [1] concerns the target Ubiquitin carboxyl-terminal hydrolase isozyme L5 (Homo sapiens, UniProt Q9Y5K5). Nature of the data set: Inhibition of human GST-tagged UCHL5 expressed in Escherichia coli assessed as cleavage of Ubiquitin-Rhodamine110-glycine to Ubiquitin and Rhodamine110-glycine using Ubiquitin-Rhodamine110-glycine as substrate by fluorescence based analysis.
Data set [2] concerns the target Ubiquitin carboxyl-terminal hydrolase 4 (Homo sapiens, UniProt Q13107). Kind of data set: Inhibition of human 6His-tagged USP4 expressed in Escherichia coli assessed as cleavage of Ubiquitin-Rhodamine110-glycine to Ubiquitin and Rhodamine110-glycine using Ubiquitin-Rhodamine110-glycine as substrate by fluorescence based analysis.
Data set [3] is described as follows: Cytotoxicity against human RKO cells assessed as reduction in cellular ATP level measured after 5 days by CellTiter-Glo assay. In kind it is cell-based.
The target of data set [4] is Ubiquitin carboxyl-terminal hydrolase 9X (Homo sapiens, UniProt Q93008). Nature of the data set: Inhibition of human GST-tagged USP9X CD (1554 to 1995 residues) expressed in Escherichia coli assessed as cleavage of Ubiquitin-Rhodamine110-glycine to Ubiquitin and Rhodamine110-glycine using Ubiquitin-Rhodamine110-glycine as substrate by fluorescence based analysis.
For data set [5], the target named is Ubiquitin carboxyl-terminal hydrolase BAP1 (Homo sapiens, UniProt Q92560). Nature of the data set: Inhibition of human GST-tagged BAP1 expressed in Escherichia coli assessed as cleavage of Ubiquitin-Rhodamine110-glycine to Ubiquitin and Rhodamine110-glycine using Ubiquitin-Rhodamine110-glycine as substrate by fluorescence based analysis.
Ubiquitin carboxyl-terminal hydrolase BAP1, sequence (Q92560 whole entry, the tested form may be a part): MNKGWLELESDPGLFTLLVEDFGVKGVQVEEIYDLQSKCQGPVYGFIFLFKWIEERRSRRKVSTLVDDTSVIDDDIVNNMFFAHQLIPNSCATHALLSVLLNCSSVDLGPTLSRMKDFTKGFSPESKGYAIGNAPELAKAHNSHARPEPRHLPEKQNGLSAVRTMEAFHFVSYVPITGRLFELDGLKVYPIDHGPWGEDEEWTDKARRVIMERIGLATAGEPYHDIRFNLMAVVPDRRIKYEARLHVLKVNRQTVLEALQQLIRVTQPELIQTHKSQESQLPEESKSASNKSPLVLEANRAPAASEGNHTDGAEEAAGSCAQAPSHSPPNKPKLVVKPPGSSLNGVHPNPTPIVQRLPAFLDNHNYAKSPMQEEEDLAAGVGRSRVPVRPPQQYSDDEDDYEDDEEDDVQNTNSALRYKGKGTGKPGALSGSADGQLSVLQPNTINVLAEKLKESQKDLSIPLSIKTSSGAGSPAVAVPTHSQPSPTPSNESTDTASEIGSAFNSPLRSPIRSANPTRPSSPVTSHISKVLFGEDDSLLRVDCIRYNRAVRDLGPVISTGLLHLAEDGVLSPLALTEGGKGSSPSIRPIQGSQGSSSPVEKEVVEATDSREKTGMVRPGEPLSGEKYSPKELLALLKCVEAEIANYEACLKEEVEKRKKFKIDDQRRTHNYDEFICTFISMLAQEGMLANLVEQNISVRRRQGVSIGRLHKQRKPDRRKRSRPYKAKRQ
The target in data set [6] is OTU domain-containing protein 6A (Homo sapiens, UniProt Q7L8S5). Kind of data set: Inhibition of human His6-tagged OTUD6A expressed in Escherichia coli assessed as cleavage of Ubiquitin-Rhodamine110-glycine to Ubiquitin and Rhodamine110-glycine using Ubiquitin-Rhodamine110-glycine as substrate by fluorescence based analysis.
OTU domain-containing protein 6A, sequence (Q7L8S5 whole entry, the tested form may be a part): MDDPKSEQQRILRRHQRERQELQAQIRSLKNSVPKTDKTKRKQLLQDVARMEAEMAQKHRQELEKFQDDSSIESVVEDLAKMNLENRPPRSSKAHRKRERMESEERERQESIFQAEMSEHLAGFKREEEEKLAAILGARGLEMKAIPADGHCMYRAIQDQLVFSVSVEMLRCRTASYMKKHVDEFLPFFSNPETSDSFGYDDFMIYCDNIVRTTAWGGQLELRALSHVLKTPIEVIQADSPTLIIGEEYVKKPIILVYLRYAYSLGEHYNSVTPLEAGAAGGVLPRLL
Data set [7] addresses OTU domain-containing protein 3 (Homo sapiens, UniProt Q5T2D3). Nature of the data set: Inhibition of human GST-tagged OTUD3 expressed in Escherichia coli assessed as cleavage of Ubiquitin-Rhodamine110-glycine to Ubiquitin and Rhodamine110-glycine using Ubiquitin-Rhodamine110-glycine as substrate by fluorescence based analysis.
The target of data set [8] is Josephin-1 (Homo sapiens, UniProt Q15040). Nature of the data set: Inhibition of human His6-tagged JOSD1 expressed in Escherichia coli assessed as cleavage of Ubiquitin-Rhodamine110-glycine to Ubiquitin and Rhodamine110-glycine using Ubiquitin-Rhodamine110-glycine as substrate by fluorescence based analysis.
In data set [9] the target is AMSH-like protease (Homo sapiens, UniProt Q96FJ0). Nature of the data set: Inhibition of human GST-tagged AMSH-LP CD (264 to 436 residues) expressed in Escherichia coli assessed as cleavage of Ubiquitin-Rhodamine110-glycine to Ubiquitin and Rhodamine110-glycine using Ubiquitin-Rhodamine110-glycine as substrate by fluorescence based analysis.
AMSH-like protease, sequence (Q96FJ0 whole entry, the tested form may be a part): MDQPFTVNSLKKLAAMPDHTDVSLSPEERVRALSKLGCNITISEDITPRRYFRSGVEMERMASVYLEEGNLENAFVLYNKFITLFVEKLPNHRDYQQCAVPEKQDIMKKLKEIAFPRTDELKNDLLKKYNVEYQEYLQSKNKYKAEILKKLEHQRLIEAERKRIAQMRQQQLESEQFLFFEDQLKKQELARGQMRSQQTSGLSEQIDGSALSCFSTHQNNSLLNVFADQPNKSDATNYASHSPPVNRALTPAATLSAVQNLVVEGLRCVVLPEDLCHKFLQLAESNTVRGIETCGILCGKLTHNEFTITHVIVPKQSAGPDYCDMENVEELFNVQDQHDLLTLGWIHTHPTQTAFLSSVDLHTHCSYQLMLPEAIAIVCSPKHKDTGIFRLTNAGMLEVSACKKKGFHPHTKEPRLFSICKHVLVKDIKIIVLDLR
For data set [10], the species on record is Homo sapiens. Nature of the data set: Selectivity index, ratio of IC50 for human GST-tagged VCPIP CD (25 to 561 residues) expressed in Escherichia coli assessed as cleavage of Ubiquitin-Rhodamine110-glycine to Ubiquitin and Rhodamine110-glycine using Ubiquitin-Rhodamine110-glycine as substrate by fluorescence based analysis to IC50 for inhibition of recombinant full length USP7 (unknown origin) using ubiquintin-rhodamine as substrate preincubated for 30 mins followed by substrate addition measured after 1 hr by fluorescence-based Envision plate reader assay.

Data set [11] has as its target Ubiquitin carboxyl-terminal hydrolase 6 (Homo sapiens, UniProt P35125). Kind of data set: Inhibition of human GST-tagged USP6 CD (529 to 1406 residues) expressed in Sf21 insect cells assessed as cleavage of Ubiquitin-Rhodamine110-glycine to Ubiquitin and Rhodamine110-glycine using Ubiquitin-Rhodamine110-glycine as substrate by fluorescence based analysis.
In data set [12] the target is Ubiquitin carboxyl-terminal hydrolase 7 (Homo sapiens, UniProt Q93009). Kind of data set: Inhibition of recombinant full length USP7 (unknown origin) using ubiquintin-rhodamine as substrate preincubated for 30 mins followed by substrate addition measured after 1 hr by fluorescence-based Envision plate reader assay.
Ubiquitin carboxyl-terminal hydrolase 7, sequence (Q93009 whole entry): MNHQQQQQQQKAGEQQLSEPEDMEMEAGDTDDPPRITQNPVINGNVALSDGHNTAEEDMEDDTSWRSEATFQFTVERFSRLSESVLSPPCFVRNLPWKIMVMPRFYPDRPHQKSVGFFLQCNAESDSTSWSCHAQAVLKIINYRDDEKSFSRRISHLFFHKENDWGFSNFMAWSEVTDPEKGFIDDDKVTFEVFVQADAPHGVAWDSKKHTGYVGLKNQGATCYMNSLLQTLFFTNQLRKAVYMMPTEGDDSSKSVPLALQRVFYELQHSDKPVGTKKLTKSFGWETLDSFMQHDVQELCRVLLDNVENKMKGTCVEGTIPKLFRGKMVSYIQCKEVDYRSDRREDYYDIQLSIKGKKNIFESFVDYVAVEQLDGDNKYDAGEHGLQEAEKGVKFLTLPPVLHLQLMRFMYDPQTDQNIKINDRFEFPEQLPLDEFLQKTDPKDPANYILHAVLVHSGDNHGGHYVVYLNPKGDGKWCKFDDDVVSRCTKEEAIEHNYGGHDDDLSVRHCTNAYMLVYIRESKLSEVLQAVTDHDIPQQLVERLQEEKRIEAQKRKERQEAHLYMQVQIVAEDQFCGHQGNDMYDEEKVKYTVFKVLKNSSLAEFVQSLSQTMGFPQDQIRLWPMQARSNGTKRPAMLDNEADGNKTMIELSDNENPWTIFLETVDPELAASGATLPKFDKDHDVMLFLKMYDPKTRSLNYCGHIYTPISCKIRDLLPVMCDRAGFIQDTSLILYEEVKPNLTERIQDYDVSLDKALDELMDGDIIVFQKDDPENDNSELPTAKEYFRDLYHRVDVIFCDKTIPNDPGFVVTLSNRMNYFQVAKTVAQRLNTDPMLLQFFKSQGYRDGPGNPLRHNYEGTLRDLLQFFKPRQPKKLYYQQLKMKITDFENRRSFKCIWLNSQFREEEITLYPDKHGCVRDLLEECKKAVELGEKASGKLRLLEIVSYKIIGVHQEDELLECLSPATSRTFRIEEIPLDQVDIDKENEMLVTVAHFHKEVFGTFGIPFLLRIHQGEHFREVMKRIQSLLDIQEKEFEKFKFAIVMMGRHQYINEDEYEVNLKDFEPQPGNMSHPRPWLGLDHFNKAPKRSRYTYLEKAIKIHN
The target of data set [13] is Ubiquitin carboxyl-terminal hydrolase 45 (Homo sapiens, UniProt Q70EL2). Nature of the data set: Inhibition of USP45 (unknown origin).
Data set [14] concerns the target Ubiquitin carboxyl-terminal hydrolase 2 (Homo sapiens, UniProt O75604). Kind of data set: Inhibition of human GST-tagged USP2 isoform 4 expressed in Escherichia coli assessed as cleavage of Ubiquitin-Rhodamine110-glycine to Ubiquitin and Rhodamine110-glycine using Ubiquitin-Rhodamine110-glycine as substrate by fluorescence based analysis.
Data set [15] addresses T1, Ubiquitin carboxyl-terminal hydrolase 1 (Homo sapiens, UniProt O94782).
T1 sequence (O94782 whole entry): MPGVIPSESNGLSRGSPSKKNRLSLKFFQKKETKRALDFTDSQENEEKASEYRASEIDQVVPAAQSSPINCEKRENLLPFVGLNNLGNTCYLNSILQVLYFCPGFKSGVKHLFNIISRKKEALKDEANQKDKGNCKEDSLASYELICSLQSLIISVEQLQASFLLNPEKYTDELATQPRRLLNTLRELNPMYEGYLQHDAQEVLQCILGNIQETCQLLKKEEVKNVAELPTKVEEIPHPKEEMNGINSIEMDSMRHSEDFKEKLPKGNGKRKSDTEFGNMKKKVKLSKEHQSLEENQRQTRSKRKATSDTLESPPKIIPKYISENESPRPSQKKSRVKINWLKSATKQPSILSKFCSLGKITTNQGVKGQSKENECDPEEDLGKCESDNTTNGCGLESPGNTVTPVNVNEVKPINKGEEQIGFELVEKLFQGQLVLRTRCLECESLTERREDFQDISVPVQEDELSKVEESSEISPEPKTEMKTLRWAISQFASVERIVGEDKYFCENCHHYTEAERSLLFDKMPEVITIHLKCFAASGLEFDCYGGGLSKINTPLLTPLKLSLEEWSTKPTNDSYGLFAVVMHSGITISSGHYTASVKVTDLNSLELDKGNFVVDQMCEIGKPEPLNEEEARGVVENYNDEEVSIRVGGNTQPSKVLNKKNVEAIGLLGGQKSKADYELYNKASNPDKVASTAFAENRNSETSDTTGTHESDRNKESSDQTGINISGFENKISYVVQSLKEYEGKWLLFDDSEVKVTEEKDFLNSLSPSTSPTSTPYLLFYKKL
Kind of data set: Inhibition of His6-tagged human USP1 expressed in insect Sf21 cells coexpressing untagged UAF1 assessed as cleavage of Ubiquitin-Rhodamine110-glycine to Ubiquitin and Rhodamine110-glycine using Ubiquitin-Rhodamine110-glycine as substrate by fluorescence based analysis.

The target in data set [16] is OTU domain-containing protein 7B (Homo sapiens, UniProt Q6GQQ9). Kind of data set: Inhibition of cezanne (unknown origin).
The target of data set [17] is Ubiquitin carboxyl-terminal hydrolase 5 (Homo sapiens, UniProt P45974). Nature of the data set: Inhibition of human 6His-tagged USP5 expressed in Escherichia coli assessed as cleavage of Ubiquitin-Rhodamine110-glycine to Ubiquitin and Rhodamine110-glycine using Ubiquitin-Rhodamine110-glycine as substrate by fluorescence based analysis.
Ubiquitin carboxyl-terminal hydrolase 5, sequence (P45974 whole entry): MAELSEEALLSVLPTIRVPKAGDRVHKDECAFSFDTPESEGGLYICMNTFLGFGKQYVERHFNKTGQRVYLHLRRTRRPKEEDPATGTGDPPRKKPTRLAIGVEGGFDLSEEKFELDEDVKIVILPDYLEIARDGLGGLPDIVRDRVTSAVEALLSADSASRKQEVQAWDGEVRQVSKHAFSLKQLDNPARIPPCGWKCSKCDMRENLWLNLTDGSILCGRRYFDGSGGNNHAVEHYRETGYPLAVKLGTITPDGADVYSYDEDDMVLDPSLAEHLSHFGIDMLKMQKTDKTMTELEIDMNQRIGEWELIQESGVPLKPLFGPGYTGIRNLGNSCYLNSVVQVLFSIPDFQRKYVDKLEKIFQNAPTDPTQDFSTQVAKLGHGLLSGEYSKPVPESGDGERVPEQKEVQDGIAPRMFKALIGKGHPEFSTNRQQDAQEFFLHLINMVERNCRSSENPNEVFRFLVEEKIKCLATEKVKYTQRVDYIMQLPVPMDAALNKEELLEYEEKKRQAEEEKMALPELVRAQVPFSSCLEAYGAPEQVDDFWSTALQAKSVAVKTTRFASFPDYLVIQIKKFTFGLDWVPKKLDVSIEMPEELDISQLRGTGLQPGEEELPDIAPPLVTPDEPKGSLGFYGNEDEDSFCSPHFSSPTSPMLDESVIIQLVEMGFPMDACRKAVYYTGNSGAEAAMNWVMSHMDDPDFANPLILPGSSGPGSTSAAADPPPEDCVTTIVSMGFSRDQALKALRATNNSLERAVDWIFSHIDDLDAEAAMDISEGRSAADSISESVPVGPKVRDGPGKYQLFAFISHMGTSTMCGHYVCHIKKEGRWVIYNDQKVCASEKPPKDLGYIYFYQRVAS
Data set [18] addresses Ubiquitin carboxyl-terminal hydrolase 20 (Homo sapiens, UniProt Q9Y2K6). Nature of the data set: Inhibition of human GST-tagged USP20 expressed in Sf21 insect cells assessed as cleavage of Ubiquitin-Rhodamine110-glycine to Ubiquitin and Rhodamine110-glycine using Ubiquitin-Rhodamine110-glycine as substrate by fluorescence based analysis.

Ubiquitin carboxyl-terminal hydrolase 2, sequence (O75604 whole entry, canonical isoform): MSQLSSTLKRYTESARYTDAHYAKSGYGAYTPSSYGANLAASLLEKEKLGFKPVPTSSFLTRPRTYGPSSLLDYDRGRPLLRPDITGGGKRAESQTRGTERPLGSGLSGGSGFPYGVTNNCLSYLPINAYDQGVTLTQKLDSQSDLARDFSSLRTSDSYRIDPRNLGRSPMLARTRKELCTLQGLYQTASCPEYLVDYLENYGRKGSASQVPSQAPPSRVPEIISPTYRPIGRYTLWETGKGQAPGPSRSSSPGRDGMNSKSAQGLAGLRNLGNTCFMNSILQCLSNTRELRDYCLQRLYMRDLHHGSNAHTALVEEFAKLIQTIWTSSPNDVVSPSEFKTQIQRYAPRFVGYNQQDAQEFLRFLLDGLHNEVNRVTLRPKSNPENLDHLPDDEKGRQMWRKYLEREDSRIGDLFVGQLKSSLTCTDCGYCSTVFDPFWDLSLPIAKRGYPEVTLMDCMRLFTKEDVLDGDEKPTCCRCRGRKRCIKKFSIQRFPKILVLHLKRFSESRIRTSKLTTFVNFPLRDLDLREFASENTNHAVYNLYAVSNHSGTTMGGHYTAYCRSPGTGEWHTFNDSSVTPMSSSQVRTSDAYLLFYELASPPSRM
Ubiquitin carboxyl-terminal hydrolase 4, sequence (Q13107 whole entry): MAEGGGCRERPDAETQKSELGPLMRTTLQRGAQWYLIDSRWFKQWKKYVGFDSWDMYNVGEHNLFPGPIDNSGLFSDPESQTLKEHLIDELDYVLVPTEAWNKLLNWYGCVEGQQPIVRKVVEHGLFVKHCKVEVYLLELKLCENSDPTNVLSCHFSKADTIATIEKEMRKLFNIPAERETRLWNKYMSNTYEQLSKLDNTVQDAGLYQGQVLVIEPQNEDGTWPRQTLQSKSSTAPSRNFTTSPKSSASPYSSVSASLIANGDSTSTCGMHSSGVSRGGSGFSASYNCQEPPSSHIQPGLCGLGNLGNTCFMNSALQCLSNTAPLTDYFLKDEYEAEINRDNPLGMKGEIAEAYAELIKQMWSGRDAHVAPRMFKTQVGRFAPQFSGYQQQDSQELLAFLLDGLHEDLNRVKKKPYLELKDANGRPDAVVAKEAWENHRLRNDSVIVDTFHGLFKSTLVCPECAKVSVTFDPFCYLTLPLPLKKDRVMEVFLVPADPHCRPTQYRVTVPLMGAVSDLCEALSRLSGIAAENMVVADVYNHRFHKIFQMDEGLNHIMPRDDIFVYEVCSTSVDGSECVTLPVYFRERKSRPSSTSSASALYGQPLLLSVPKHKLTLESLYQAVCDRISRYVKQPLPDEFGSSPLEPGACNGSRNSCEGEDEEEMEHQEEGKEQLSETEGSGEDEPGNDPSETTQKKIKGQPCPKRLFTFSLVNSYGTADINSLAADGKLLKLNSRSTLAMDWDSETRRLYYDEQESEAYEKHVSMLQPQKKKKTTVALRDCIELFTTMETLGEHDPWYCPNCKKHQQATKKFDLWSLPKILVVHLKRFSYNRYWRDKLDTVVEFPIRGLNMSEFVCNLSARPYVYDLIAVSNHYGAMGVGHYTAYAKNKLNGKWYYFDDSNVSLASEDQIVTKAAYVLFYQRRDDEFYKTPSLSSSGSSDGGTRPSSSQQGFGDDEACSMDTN

`Cc1cc(Cl)cc(-c2ccnc3cc(CN4C(=O)C5C(C4=O)C5(C)C)sc23)c1O[C@@H]1CCNC[C@@H]1C` (stereo partly drawn): the IC50 in [1], in [2], in data set [4], in data set [5], in data set [6] and in [7] was more than 10 µM throughout. Further, the IC50 – broadly, the midpoint of a concentration-inhibition curve – in data set [8] is more than 10 µM; in [9] it was more than 10 µM; in data set [11] it was more than 10 µM; in data set [12], 0.00018 µM; in data set [13], more than 10 µM; in data set [14] it was more than 10 µM. In addition, the IC50 in data set [15], in [16], in data set [17] and in [18] was more than 10 µM each time. In addition, in [3], the CC50 (usually the concentration that lowers cell viability or growth by half) at 120 h stood at 3.4 µM. In [10], the Ratio IC50 is more than 50000.

The values are drawn from ChEMBL document CHEMBL4602719, “Discovery of Potent, Selective, and Orally Bioavailable Inhibitors of USP7 with In Vivo Antitumor Activity” (J Med Chem, 2020).
